Seven compounds from ChEMBL document CHEMBL4229466, “Conformational Propensity and Biological Studies of Proline Mutated LR Peptides Inhibiting Human Thymidylate Synthase and Ovarian Cancer Cell Growth” (J Med Chem, 2018) can be followed below.

Experiment [1] deals with IGROV-1. In words: Effect on TS protein expression in human IGROV1 cells by Western blot analysis. It counts as functional, cell-based.
The test system of experiment [2] is IGROV-1. In words: Effect on DHFR protein expression in human IGROV1 cells by Western blot analysis. It counts as functional, cell-based. (In general: Immunoblotting shows a protein as a band on a membrane.)
Experiment [3] deals with IGROV-1. In words: Effect on HSP90 protein expression in human IGROV1 cells by Western blot analysis. It counts as functional, cell-based.
For experiment [4], the system named is IGROV-1. In words: Downregulation of TRAP1 protein levels in human IGROV1 cells by Western blot analysis. It counts as functional, cell-based.
Experiment [5] relates to IGROV-1. In words: Cytotoxicity against human IGROV1 cells after 72 hrs. Conditions: IGROV-1, 72 h. It counts as functional, cell-based.
Experiment [6] concerns 2008. Briefly: Cytotoxicity against human 2008 cells. It counts as functional, cell-based.
The subject of experiment [7] is C13. Briefly: Cytotoxicity against human C13 cells after 72 hrs. It counts as functional, cell-based. Conditions: C13, 72 h.
Experiment [8] concerns the target Thymidylate synthase (Homo sapiens) (UniProt P04818). In words: Inhibition of thymidylate synthase in human IGROV1 cell lysate using [5-3H]dUMP as substrate assessed as decrease in residual activity at 5 uM after 60 mins by liquid scintillation counting analysis relative to control.

pIC50: −log10 of the molar value. Activity calls are given as the source filed them. The rule behind the calls is not given here. Non-standard residues stand in square brackets, D forms with d. Residues, ends and D or L forms follow the SMILES beside them.

Thymidylate synthase (Homo sapiens), sequence (P04818 2-313 limits assumed): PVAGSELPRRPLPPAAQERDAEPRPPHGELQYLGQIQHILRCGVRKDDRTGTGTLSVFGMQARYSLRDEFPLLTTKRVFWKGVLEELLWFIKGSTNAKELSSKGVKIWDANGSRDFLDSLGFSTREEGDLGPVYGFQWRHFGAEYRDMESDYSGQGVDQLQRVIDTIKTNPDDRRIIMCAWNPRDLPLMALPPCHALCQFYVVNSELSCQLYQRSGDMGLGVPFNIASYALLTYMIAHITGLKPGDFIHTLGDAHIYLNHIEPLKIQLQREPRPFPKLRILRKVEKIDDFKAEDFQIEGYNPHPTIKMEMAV

For `Nc1nc2[nH]cc(CCc3ccc(C(=O)N[C@@H](CCC(=O)O)C(=O)O)cc3)c2c(=O)[nH]1`, the outcome in experiment [1], in experiment [2] and in experiment [3] was Active.

In the case of `CC(C)C[C@H](NC(=O)[C@@H](CCC(N)=O)NC(=O)[C@H](CS)NC(=O)[C@H](CO)NC(=O)[C@@H](N)CC(C)C)C(=O)N[C@@H](Cc1ccc(O)cc1)C(=O)N[C@@H](CCC(N)=O)C(=O)N[C@@H](CCCNC(=N)N)C(=O)O` (H-LSC[dQ]LYQR-OH), the result in experiment [4] was Active.

The term pIC50 denotes the IC50 on a negative log10 scale, so that one unit is a factor of ten. What is called inhibition is the percentage by which the read-out fell short of the control. On to `O=c1[nH]cc(F)c(=O)[nH]1` [FLUOROURACIL], for which the results for the pIC50 in experiment [5], in experiment [6] and in experiment [7] were 4.97, 5.22 and 4.92, respectively. In experiment [8], the inhibition result was “Active”.

Turning to H-LSCPLYQR-OH, the negative-log IC50 (pIC50) in experiment [5] was 4.92 to 5.36; in experiment [6] it was 5.80 to 6.02; in experiment [7] it was 5.09 to 5.45. Moreover, the inhibition in experiment [8] was 25%. For the same compound, the outcome in experiment [4], in experiment [1], in experiment [2] and in experiment [3] was Active.

As to H-LSCQLYPR-OH, the values for the negative-log IC50 (pIC50) in experiment [5], in experiment [6] and in experiment [7] were 5.36, 5.80 to 6.02 and 5.09 to 5.45, respectively. For the same compound, in experiment [8], the inhibition was > 30%.

In the case of H-LSCQLYQR-OH, the negative-log IC50 (pIC50) in experiment [5] was 5.09; in experiment [6] it was 5.34; in experiment [7], 5.02.

Take H-LSPQLYQR-OH: the results for the negative logarithm of the IC50 (pIC50) in experiment [5], in experiment [6] and in experiment [7] were 5.21, 5.80 to 6.02 and 5.09 to 5.45, respectively. Also, the inhibition in experiment [8] was 25%. Besides, the result in experiment [1], in experiment [2] and in experiment [3] was Active.
